Assay results from patent publication EP0167954A2, “1-Hydroxy-cytorhodines, a microbiological method for their preparation and their use as cytostatic agents” (HOECHST AKTIENGESELLSCHAFT, priority 1984, dated 1986).
In brackets after ≈: the same amount, converted by molar mass. Like-named read-outs stand apart in the source and are kept apart here.

Assays:
[1] = system: L1210 Leukämiezellen der Maus; assay: Proliferation assay (incorporation of C14-labelled thymidine); assay type: cell-based; conditions: Mus musculus
Text: (§1) Die Bestimmung der zytostatischen Wirksamkeit der hier beschriebenen Verbindungen erfolgte an L1210 Leukämiezellen der Maus. Im einzelnen wurden folgende Testsysteme verwendet:
Bei dieser Methode wird in vitro nach Inkubation der Zellen mit unterschiedlichen Konzentrationen der Testsubstanz ermittelt, inwieweit die Zellen radioaktive DNA-Vorläufer (z.B. C14 markiertes Thymidin) einbauen können. Unbehandelte L1210 Zellen werden den gleichen Testbedingungen unterworfen und dienen als Kontrolle. Im folgenden ist die Methode kurz beschrieben.
L1210 Zellen in exponentieller Wachstumsphase (5 x 10^3/ml in RPMI 1640) werden in einer Mikrotiterplatte 72 Stunden mit unterschiedlichen Konzentrationen der Testsubstanz inkubiert (37°C, 5 % C021 95 % relative Luftfeuchte). Kontrolle bestehen aus Zellen, die lediglich mit frischem Medium inkubiert werden. Alle Bestimmungen werden als 4fach Bestimmungen durchgeführt. Nach 65 Stunden werden 50 µl C-1 14 Thymidin (1,5 µc/ml) zugegeben, um die DNA der Zelle radioaktiv zu markieren. Nach 7 Stunden Inkubation werden die Zellen abgesaugt, die DNA mit 5%iger Trichloressigsäure gefällt und nacheinander mit Wasser bzw. Methanol gewaschen.
Nach Trocknung bei 50°C wird die in die DNA eingebaute Radioaktivität nach Zugabe von 5 ml Szintillationsflüssigkeit ermittelt.
Die Ergebnisse werden angegeben als Verhältnis des Szintillationsindex nach Inkubation mit der Testsubstanz in Prozent der unbehandelten Kontrolle. Aus den so erhaltenen Meßwerten wird die Dosiswirkungskurve ermitelt und graphisch die IC50, d.h. die Konzentration, die unter Testbedingungen den Einbau von radioaktivem Thymidin um 50 % gegenüber der Kontrolle erniedrigt, ermittelt. Die IC50 Werte der hier beschriebenen Verbindungen im Vergleich zu Adriamycin (ADM) werden in der Tabelle 1 zusammengefaßt.

[2] = system: L1210 Leukämiezellen; assay: Colony formation of L1210 leukaemia cells in soft agar; assay type: cell-based, Maus; conditions: Mus musculus
Text: as §1
b) Koloniebildung von L1210 Leukämiezellen in soft agar.
Diese Methode dient zum Nachweis eines Einflusses der Testsubstanzen auf das Wachstumsverhalten der Zellen über mehrere Generationen (bei einer Zellzykluszeit von 10-12 Stunden werden in der Testzeit von 7 Tagen ca. 14 aufeinanderfolgende Generationen beobachtet).
Zytostatisch wirksame Substanzen bewirken in diesem Test eine Reduktion der zu beobachtenden Koloniezahl gegenüber einer unbehandelten Kontrolle. Im einzelnen wird der Test wie folgt durchgeführt:
500 Leukämiezellen pro Platte werden mit unterschiedlichen Konzentrationen von Testsubstanz 1 Stunde bei 37°C inkubiert. Anschließend werden die Zellen zweimal mit McCoy5A Medium gewaschen und schließlich in Petrischalen nach Zusatz von 0,3 % Agar ausgegossen. Kontrollen werden lediglich mit frischem Medium inkubiert. Anstelle der lstündigen Inkubation werden in manchen Fällen unterschiedliche Konzentrationen und Testsubstanz der oberen Agarschicht zugemischt, um so eine kontinuierliche Exposition der Zellen über die gesamte Inkubationszeit zu erreichen. Nach Erstarren des Agars werden die Platten im Brutschrank 7 Tage bei 37°C inkubiert (5 % C02, 95 % relative Luftfeuchtigkeit). Anschließend wird die Anzahl der entstandenen Kolonien mit einem Durchmesser 60 p gezählt. Die Ergebnisse werden angegeben als Koloniezahl in behandelten Agarplatten in Prozent der unbehandelten Kontrolle. Aus der so erhaltenen Dosiswirkungskurve wird die IC50 als Maß für die Wirksamkeit der Substanz ermittelt. Die Ergebnisse für die hier beschriebenen Verbindungen im Vergleich zu Adriamycin sind in der Tabelle 1 zusammengefaßt.

[3] = L1210, read-out: Proliferationstest IC50
[4] = L1210, 168 h, read-out: Koloniebildungstest IC50, 7 Tage Inkubation
[5] = L1210, read-out: Koloniebildungstest IC50, 1 Stunde Inkubation

CCC1(O)CC(OC2CC(N(C)C)C(OC3CCC(OC4C=CC(=O)C(C)O4)C(C)O3)C(C)O2)c2c(O)c3c(c(O)c2C1OC1CC(N(C)C)C(OC2CCC(OC4CCC(O)C(C)O4)C(C)O2)C(C)O1)C(=O)c1c(O)ccc(O)c1C3=O (stereo not drawn) [1-OH-Cytorhodin V, 1-Hydroxy-Cytorhodin V]
IC50 ([1]; L1210 cells, 72 h incubation with test substance, C14 thymidine added after 65 h, IC50 read graphically, read-out: Proliferationstest IC50): 2.8 ng/mL (≈ 2.39 nM)
IC50 ([2]; 168 h, L1210 cells in soft agar, continuous exposure (substance mixed into upper agar layer), 7 days at 37°C, read-out: Koloniebildungstest IC50, 7 Tage Inkubation): 0.45 ng/mL (≈ 0.385 nM)
IC50 ([2]; L1210 cells, 1 h incubation with substance at 37°C, washed, then 7 days in soft agar, read-out: Koloniebildungstest IC50, 1 Stunde Inkubation): 2.4 ng/mL (≈ 2.05 nM)

COc1cccc2c1C(=O)c1c(O)c3c(c(O)c1C2=O)C[C@@](O)(C(=O)CO)C[C@@H]3O[C@H]1C[C@H](N)[C@H](O)[C@H](C)O1 [ADM, Adriamycin, reference compound]
IC50 [1, 3]: 6 ng/mL (≈ 11 nM)
IC50 [2, 4]: 22 ng/mL (≈ 40.5 nM)
IC50 [2, 5]: 44 ng/mL (≈ 81 nM)

CCC1(O)CC(OC2CC(N(C)C)C(OC3CCC(OC4CCC(O)C(C)O4)C(C)O3)C(C)O2)c2c(O)c3c(c(O)c2C1OC1CC(N(C)C)C(OC2CCC(OC4CCC(O)C(C)O4)C(C)O2)C(C)O1)C(=O)c1c(O)ccc(O)c1C3=O (stereo not drawn) [1-OH-Cytorhodin A, 1-Hydroxy-Cytorhodin A]
IC50 [1, 3]: 3 ng/mL (≈ 2.56 nM)
IC50 [2, 4]: 2.8 ng/mL (≈ 2.39 nM)
IC50 [2, 5]: 26 ng/mL (≈ 22.2 nM)
